Assay results from US7601746B2 (Shionogi & Co., Ltd., priority 2003, dated 2009).

Target: T1, human TPO receptor (hTPOR) (Homo sapiens, UniProt P40238)
T1 construct: expressed in transfected cells; host or cells: BaF-B03 (murine IL-3 dependent cell line)
T1 sequence (P40238 26-635): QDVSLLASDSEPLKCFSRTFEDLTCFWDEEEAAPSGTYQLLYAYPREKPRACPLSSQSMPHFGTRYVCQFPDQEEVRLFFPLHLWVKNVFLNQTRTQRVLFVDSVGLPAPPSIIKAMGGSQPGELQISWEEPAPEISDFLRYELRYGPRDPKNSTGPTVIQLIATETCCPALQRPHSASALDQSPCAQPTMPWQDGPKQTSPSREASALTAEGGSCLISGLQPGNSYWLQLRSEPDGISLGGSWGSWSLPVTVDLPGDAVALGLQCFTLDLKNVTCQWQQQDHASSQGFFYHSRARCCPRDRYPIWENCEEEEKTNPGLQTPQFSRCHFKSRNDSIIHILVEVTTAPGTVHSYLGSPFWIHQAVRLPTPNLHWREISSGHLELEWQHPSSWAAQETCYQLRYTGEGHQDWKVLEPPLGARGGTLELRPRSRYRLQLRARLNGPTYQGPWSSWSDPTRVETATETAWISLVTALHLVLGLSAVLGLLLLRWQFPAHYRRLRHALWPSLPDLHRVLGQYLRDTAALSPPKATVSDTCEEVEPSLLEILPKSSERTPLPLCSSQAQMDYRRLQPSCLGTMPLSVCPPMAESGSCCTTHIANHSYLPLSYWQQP
Assay: Thrombopoietic activity: proliferation of TPO dependent BaF/hTPOR cells (WST-1, absorbance at 450 nm)
Type: cell-based
Settings: 20 h + 4 h WST-1, ED50 = half concentration of the concentration showing the maximum thrombopoietic activity, Table 1
Summary of the method: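 Proliferation read-out: WST-1 absorbance at 450 nm after 20 h compound exposure plus 4 h reagent, using IL-3-deprived BaF/hTPOR cells (5×10^4 per well) dependent on human TPO receptor signalling. ED50 defined as half the concentration producing maximal activity.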

EC50	SMILES
0.99 nM	CCCOC(CCC)c1cccc(-c2csc(NC(=O)c3cc(F)c(C=C(C)C(=O)O)c(F)c3)n2)c1F (centres unmarked) [Compound B34, 3-(2,6-difluoro-4-{4-[2-fluoro-3-(1-n-propyloxybutyl)phenyl]thiazol-2-ylcarbamoyl}phenyl)-2-methylacrylic acid]
1.19 nM	COC(c1cccc(-c2csc(NC(=O)c3cc(Cl)c(C=C(C)C(=O)O)c(Cl)c3)n2)c1F)C(C)(C)C (centres unmarked) [Compound B64, 3-(2,6-dichloro-4-{4-[2-fluoro-3-(1-methyloxy-2,2-dimethylpropyl)phenyl]thiazol-2-ylcarbamoyl}phenyl)-2-methylacrylic acid]
15.1 nM	CO/C(=C\c1c(F)cc(C(=O)Nc2nc(-c3cccc(CCOCCC(C)C)c3OC)cs2)cc1F)C(=O)O [Compound B1956]
1.04 nM	CCOCCCCOC(CC)c1cccc(-c2csc(NC(=O)c3cc(Cl)c(C=C(C)C(=O)O)c(Cl)c3)n2)c1F (centres unmarked) [Compound B65, 3-[2,6-dichloro-4-(4-{3-[1-(4-ethyloxybutyloxy)propyl]-2-fluorophenyl]thiazol-2-ylcarbamoyl}phenyl)-2-methylacrylic acid]
6.45 nM	CCC(CC)COCc1cccc(-c2csc(NC(=O)c3cc(F)c(/C=C(\C)C(=O)O)c(F)c3)n2)c1OC [Compound B2023, (E)-3-(4-{4-[3-(2-ethylbutyloxymethyl)-2-methyloxyphenyl]thiazol-2-ylcarbamoyl}-2,6-difluorophenyl)-2-methyl acrylic acid]
8.86 nM	CCCc1cccc2c1OCc1sc(NC(=O)c3cc(Cl)c(/C=C(\C)C(=O)O)c(Cl)c3)nc1-2 [Compound A1311, (E)-3-[2,6-dichloro-4-(6-propyl-4H-chromeno[4,3-d]thiazol-2-ylcabamoyl)phenyl]-2-methylacrylic acid]
0.73 nM	CCCCCOC(c1cccc(-c2csc(NC(=O)c3cc(F)c(C=C(C)C(=O)O)c(F)c3)n2)c1F)C(C)(C)C (centres unmarked) [Compound B15, 3-(2,6-difluoro-4-{4-[3-(2,2-dimethyl-1-n-pentyloxypropyl)-2-fluorophenyl]thiazol-2-ylcarbamoyl}phenyl)-2-methylacrylic acid]
16.8 nM	COc1c(-c2csc(NC(=O)c3cc(F)c(/C=C(\C)C(=O)O)c(F)c3)n2)cccc1C(CC(C)(C)C)OC (centres unmarked) [Compound B349, (E)-3-(2,6-difluoro-4-{4-[2-methyloxy-3-(1-methyloxy-3,3-dimethylbutyl)phenyl]thiazol-2-ylcarbamoyl}phenyl)-2-methylacrylic acid]
0.79 nM	CCCCCCCCC(OC)c1cccc(-c2csc(NC(=O)c3cc(F)c(C=C(C)C(=O)O)c(F)c3)n2)c1F (centres unmarked) [Compound B28, 3-(2,6-difluoro-4-{4-[2-fluoro-3-(1-methyloxynonyl)phenyl]thiazol-2-ylcarbamoyl}phenyl)-2-methylacrylic acid]
13.2 nM	CCCCCCCOCc1cccc(-c2csc(NC(=O)c3cc(Cl)c(/C=C(\C)C(=O)O)c(Cl)c3)n2)c1OC [Compound B1991, (E)-3-{2,6-dichloro-4-[4-(3-heptyloxymethyl-2-methyloxyphenyl)thiazol-2-ylcarbamoyl]phenyl}-2-methylacrylic acid]
0.78 nM	CCCCCCCCC(OC)c1cccc(-c2csc(NC(=O)c3cc(Cl)c(C=C(C)C(=O)O)c(Cl)c3)n2)c1F (centres unmarked) [Compound B72, 3-(2,6-dichloro-4-{4-[2-fluoro-3-(1-methyloxynonyl)phenyl]thiazol-2-ylcarbamoyl}phenyl)-2-methylacrylic acid]
1.6 nM	CCCCCCCCCC(OC)c1cccc(-c2csc(NC(=O)c3cc(F)c(C=C(C)C(=O)O)c(F)c3)n2)c1F (centres unmarked) [Compound B9, 3-(2,6-difluoro-4-{4-[2-fluoro-3-(1-methyloxydecyl)phenyl]thiazol-2-ylcarbamoyl}phenyl)-2-methylacrylic acid]
2.27 nM	CCCC(CCc1cccc2c1CCc1sc(NC(=O)c3cc(F)c(C=C(C)C(=O)O)c(F)c3)nc1-2)OC (centres unmarked) [Compound A1, 3-{2,6-difluoro-4-[4,5-dihydro-6-(3-methyloxyhexyl)naphtho[1,2-d]thiazol-2-ylcarbamoyl]phenyl}-2-methylacrylic acid]
1.36 nM	CCCCCOCCCc1cccc(-c2csc(NC(=O)c3cc(F)c(C=C(C)C(=O)O)c(F)c3)n2)c1F [Compound B45, 3-(2,6-difluoro-4-{4-[2-fluoro-3-(3-n-pentyloxypropyl)phenyl]thiazol-2-ylcarbamoyl}phenyl)-2-methylacrylic acid]
1.65 nM	CCC(CC)COCCCc1cccc(-c2csc(NC(=O)c3cc(F)c(C=C(C)C(=O)O)c(F)c3)n2)c1F [Compound B43, 3-[2,6-difluoro-4-(4-{3-[3-(2-ethylbutyloxy)propyl]-2-fluorophenyl}thiazol-2-ylcarbamoyl}phenyl)-2-methylacrylic acid]
3.33 nM	CCCCCOCc1cccc(-c2csc(NC(=O)c3cc(F)c(C=C(C)C(=O)O)c(F)c3)n2)c1F [Compound B33, 3-(2,6-difluoro-4-{4-[2-fluoro-3-(n-pentyloxymethyl)phenyl]thiazol-2-ylcarbamoyl}phenyl)-2-methylacrylic acid]
2.91 nM	CCCCCCCCCC(OC)c1cccc(-c2csc(NC(=O)c3cc(F)c(/C=C(\C)C(=O)O)c(F)c3)n2)c1OCC (centres unmarked) [Compound B2099, (E)-3-(4-{4-[2-ethyloxy-3-(1-methyloxydecyl)phenyl]thiazol-2-ylcarbamoyl}-2,6-difluorophenyl)-2-methylacrylic acid]
15.1 nM	C/C(=C\c1c(Cl)cc(C(=O)Nc2nc3c(s2)COc2c(CCC(C)(C)C)cccc2-3)cc1Cl)C(=O)O [Compound A1317, (E)-3-{2,6-dichloro-4-[6-(3,3-dimethylbutyl)-4H-chromeno[4,3-d]thiazol-2-ylcabamoyl]phenyl}-2-methylacrylic acid]
0.67 nM	CCCCC(OCCC)c1cccc(-c2csc(NC(=O)c3cc(F)c(C=C(C)C(=O)O)c(F)c3)n2)c1F (centres unmarked) [Compound B41, 3-(2,6-difluoro-4-{4-[2-fluoro-3-(1-n-propyloxypentyl)phenyl]thiazol-2-ylcarbamoyl}phenyl)-2-methylacrylic acid]
1.28 nM	CCCCCCOCCCc1cccc(-c2csc(NC(=O)c3cc(F)c(C=C(C)C(=O)O)c(F)c3)n2)c1F [Compound B46, 3-(2,6-difluoro-4-{4-[2-fluoro-3-(3-n-hexyloxypropyl)phenyl]thiazol-2-ylcarbamoyl}phenyl)-2-methylacrylic acid]
0.75 nM	CCCCC(OCC)c1cccc(-c2csc(NC(=O)c3cc(F)c(C=C(C)C(=O)O)c(F)c3)n2)c1F (centres unmarked) [Compound B27, 3-(2,6-difluoro-4-{4-[3-(1-ethyloxypentyl)-2-fluorophenyl]thiazol-2-ylcarbamoyl}phenyl)-2-methylacrylic acid]
1.01 nM	CC(=Cc1c(F)cc(C(=O)Nc2nc(-c3cccc(CCCOCCCC(C)C)c3F)cs2)cc1F)C(=O)O [Compound B39, 3-[2,6-difluoro-4-(4-(2-fluoro-3-[3-(4-methylpentyloxy)propyl]phenyl}thiazol-2-ylcarbamoyl)phenyl]-2-methylacrylic acid]
19.4 nM	CCCCCCCOc1cccc(-c2csc(NC(=O)c3cc(Cl)c(/C=C(\OC)C(=O)O)c(Cl)c3)n2)c1OC [Compound B2001, (Z)-3-{2,6-dichloro-4-[4-(3-heptyloxy-2-methyloxyphenyl)thiazol-2-ylcarbamoyl]phenyl}-2-methyloxyacrylic acid]
10.1 nM	CCC(CC)COCCc1cccc(-c2csc(NC(=O)c3cc(Cl)c(/C=C(\OC)C(=O)O)c(Cl)c3)n2)c1OC [Compound B1960, (Z)-3-[2,6-dicholoro-4-(4-{3-[2-(2-ethylbutyloxy)ethyl]-2-methyloxyphenyl}thiazol-2-ylcarbamoyl)phenyl]-2-methyloxyacrylic acid]
12.3 nM	CCc1cccc2c1OCc1sc(NC(=O)c3cc(Cl)c(/C=C(\C)C(=O)O)c(Cl)c3)nc1-2 [Compound A1310, (E)-3-[2,6-dichloro-4-(6-ethyl-4H-chromeno[4,3-d]thiazol-2-ylcabamoyl)phenyl]-2-methylacrylic acid]
0.68 nM	CCCCOCCCC(OCCCC)c1cccc(-c2csc(NC(=O)c3cc(Cl)c(C=C(C)C(=O)O)c(Cl)c3)n2)c1F (centres unmarked) [Compound B100, 3-(4-{4-[3-(1,4-dibutyloxybutyl)-2-fluorophenyl]thiazol-2-ylcarbamoyl)-2,6-dichlorophenyl]-2-methylacrylic acid]
3.6 nM	COC(c1cccc(-c2csc(NC(=O)c3cc(F)c(C=C(C)C(=O)O)c(F)c3)n2)c1F)(C(C)C)C(C)C [Compound B7, 3-(2,6-difluoro-4-{4-[2-fluoro-3-(2,4-dimethyl-3-methyloxy-3-pentyl)phenyl]thiazol-2-ylcarbamoyl}phenyl)-2-methylacrylic acid]

SMILES	EC50
CCCC(CCC)(OC)c1cccc(-c2csc(NC(=O)c3cc(F)c(C=C(C)C(=O)O)c(F)c3)n2)c1F [Compound B8]	4 nM
COc1c(OCCC2CCCCC2)cccc1-c1csc(NC(=O)c2cc(F)c(/C=C(\C)C(=O)O)c(F)c2)n1 [Compound B1916]	12.9 nM
